Molecules are shown by their SMILES. Counter-ions that a name gives are not always drawn.

For the first test, the target named is T1, human recombinant GST-PAK1-KD protein (Homo sapiens, UniProt Q13153).
T1 construct: residues #249-545 of human PAK1, UniProtKP/Swiss Q13153; His6 (N); made in house; host or cells: Sf9 insect cells, pAcGP67 baculovirus expression vector
T1 sequence (Q13153 249-545): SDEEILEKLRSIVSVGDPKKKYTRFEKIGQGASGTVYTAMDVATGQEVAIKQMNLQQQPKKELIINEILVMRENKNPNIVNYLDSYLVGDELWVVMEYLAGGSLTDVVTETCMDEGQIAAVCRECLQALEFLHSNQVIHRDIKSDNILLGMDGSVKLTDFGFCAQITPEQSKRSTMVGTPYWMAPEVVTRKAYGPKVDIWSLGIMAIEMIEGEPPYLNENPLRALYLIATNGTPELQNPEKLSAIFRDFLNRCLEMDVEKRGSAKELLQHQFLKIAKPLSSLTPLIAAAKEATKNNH
Put plainly: GST-PAK1-KD (kinase domain) biochemical assay, microfluidic mobility shift. Conditions: GST-PAK1-KD Inhibition Assay - Example 65; read-out: PAK1 inhibition Ki.
What is called Ki is a dissociation constant, usually derived from enzyme kinetics or from competition with a known ligand. For `Clc1c(CNc2nccc(Nc3cc(COC4CCC4)[nH]n3)n2)ccc2[nH]cnc12` [II-43, N^2-((4-Chloro-1H-benzo[d]imidazol-5-yl)methyl)-N^4-(5-(cyclobutoxymethyl)-1H-pyrazol-3-yl)pyrimidine-2,4-diamine], the Ki worked out at 284 nM.

The test is the same for the next values; noted with them: Table I, PAK1 Ki class; read-out: Ki.
Consider `C[C@H](Nc1nccc(Nc2cc(C3CCOC3)[nH]n2)n1)c1ccc2[nH]ccc2c1` (stereo partly drawn) [I-115, N^2—((S)-1-(1H-indol-5-yl)ethyl)-N^4-(5-(tetrahydrofuran-3-yl)-1H-pyrazol-3-yl)pyrimidine-2,4-diamine], for which the Ki is below 50 nM. Still for that read-out and setting: the value for `CN(Cc1cccc2[nH]ccc12)c1nccc(Nc2cc(C3CC3)[nH]n2)n1` [I-40, N^2-((1H-Indol-4-yl)methyl)-N^4-(5-cyclopropyl-1H-pyrazol-3-yl)-N^2-methylpyrimidine-2,4-diamine] was 50 to 250 nM.

Turning to `C[C@H](Nc1nc(Nc2cc(C3CC3)[nH]n2)cc(C(F)(F)F)n1)c1ccc2[nH]ccc2c1` [I-18, (S)—N^2-(1-(1H-indol-5-yl)ethyl)-N^4-(5-cyclopropyl-1H-pyrazol-3-yl)-6-(trifluoromethyl) pyrimidine-2,4-diamine], the inhibition constant (Ki) was 50 to 250 nM. Same read-out and setting: the value for `Cc1c[nH]c2ccc(CNc3nccc(Nc4cc(C5CC5)[nH]n4)n3)cc12` [I-25, N^4-(5-cyclopropyl-1H-pyrazol-3-yl)-N^2-((3-methyl-1H-indol-5-yl)methyl)pyrimidine-2,4-diamine] was 50 to 250 nM; that for `FC(F)(F)c1cc(Nc2cc(C3CC3)[nH]n2)nc(NCc2cccc3[nH]ccc23)n1` [I-41, N^2-((1H-indol-4-yl)methyl)-N^4-(5-cyclopropyl-1H-pyrazol-3-yl)-6-(trifluoromethyl)pyrimidine-2,4-diamine] was 250 to 1000 nM; that for `F[C@@H]1C[C@H]1c1cc(Nc2ccnc(NCc3cccc4[nH]ccc34)n2)n[nH]1` (racemic) [I-80, trans-N^2-((1H-indol-4-yl)methyl)-N^4-(5-(2-fluorocyclopropyl)-1H-pyrazol-3-yl)pyrimidine-2,4-diamine] was below 50 nM.

Take `F[C@@H]1C[C@@H]1c1cc(Nc2ccnc(NCc3cccc4[nH]ccc34)n2)n[nH]1` (racemic) [I-81]: the inhibition constant (Ki) fell in the range of 50 to 250 nM. The same measure, in the same setting: to `Fc1cc(CNc2nccc(Nc3cc(C4CCC4)[nH]n3)n2)c2cc[nH]c2c1` [I-88, N^4-(5-Cyclobutyl-1H-pyrazol-3-yl)-N^2-((6-fluoro-1H-indol-4-yl)methyl)pyrimidine-2,4-diamine Formate] belongs below 50 nM; to `CC(C)(O)c1cc(Nc2cc(C3CC3)[nH]n2)nc(NCc2cccc3[nH]ccc23)n1` [I-85, 2-(2-((1H-indol-4-yl)methylamino)-6-(5-cyclopropyl-1H-pyrazol-3-ylamino)pyrimidin-4-yl)propan-2-ol], 50 to 250 nM; to `Cc1c(CNc2nccc(Nc3cc(C4CC4)[nH]n3)n2)ccc2[nH]cnc12` [I-16, N^4-(5-Cyclopropyl-1H-pyrazol-3-yl)-N^2-((4-methyl-1H-benzo[d]imidazol-5-yl)methyl)pyrimidine-2,4-diamine], 50 to 250 nM. The same measure, in the same setting: the value for `F[C@@H]1C[C@@H]1c1cc(Nc2ccnc(NCc3ccc4[nH]cnc4c3Cl)n2)n[nH]1` [I-77, N^2-((4-chloro-1H-benzo[d]imidazol-5-yl)methyl)-N^4-(5-((1R,2R)-2-fluorocyclopropyl)-1H-pyrazol-3-yl)pyrimidine-2,4-diamine] was below 50 nM; that for `Fc1cc(CNc2nccc(Nc3cc(C4CC4)[nH]n3)n2)c2cc[nH]c2c1` [I-53, N^4-(5-cyclopropyl-1H-pyrazol-3-yl)-N^2-((6-fluoro-1H-indol-4-yl)methyl)pyrimidine-2,4-diamine] was below 50 nM; that for `Fc1cc(CNc2ncc(F)c(Nc3cc(C4CCC4)[nH]n3)n2)c2cc[nH]c2c1` [I-90, N^4-(5-Cyclobutyl-1H-pyrazol-3-yl)-5-fluoro-N^2-((6-fluoro-1H-indol-4-yl)methyl)pyrimidine-2,4-diamine formate] was 250 to 1000 nM. The same measure, in the same setting: to `CC[C@@H](Nc1nccc(Nc2cc(C3CC3)[nH]n2)n1)c1ccc2[nH]cnc2c1` [I-43, N^2-[(1R)-1-(1H-benzimidazol-5-yl)propyl]-N^4-(5-cyclopropyl-1H-pyrazol-3-yl)pyrimidine-2,4-diamine] belongs 250 to 1000 nM; to `C[C@H](Nc1nccc(Nc2cc([C@@H]3C[C@H]3F)[nH]n2)n1)c1ccc2[nH]cnc2c1` [I-69, N^2—((S)-1-(1H-benzo[d]imidazol-5-yl)ethyl)-N^4-(5-((1S,2R)-2-fluorocyclopropyl)-1H-pyrazol-3-yl)pyrimidine-2,4-diamine], below 50 nM; to `Cc1cc(Nc2cc(C3CC3)[nH]n2)nc(NCc2ccc3[nH]ccc3c2Cl)n1` [I-19, N^2-((4-chloro-1H-indol-5-yl)methyl)-N^4-(5-cyclopropyl-1H-pyrazol-3-yl)-6-methylpyrimidine-2,4-diamine], 50 to 250 nM.

Staying with this test, now noted: Table II, PAK1 Ki class; read-out: Ki.
Take `Cc1nc2c(CNc3nccc(Nc4cc(C5CC5)[nH]n4)n3)cc(F)cc2[nH]1` [II-34, N^4-(5-Cyclopropyl-1H-pyrazol-3-yl)-N^2-((6-fluoro-2-methyl-1H-benzo[d]imidazol-4-yl)-methyl)pyrimidine-2,4-diamine]: the Ki lay within 50 to 250 nM. Still for that read-out and setting: to `Cc1cc(CNc2ncc(F)c(Nc3cc(C4CC4)[nH]n3)n2)c2cn[nH]c2c1` [II-25, N^4-(5-Cyclopropyl-1H-pyrazol-3-yl)-5-fluoro-N^2-((6-methyl-1H-indazol-4-yl)methyl)-pyrimidine-2,4-diamine] belongs below 50 nM. Same read-out and setting: the value for `OCCN(Cc1cccc2[nH]ncc12)c1nccc(Nc2cc(C3CC3)[nH]n2)n1` [II-77, 2-(((1H-indazol-4-yl)methyl)(4-((5-cyclopropyl-1H-pyrazol-3-yl)amino)pyrimidin-2-yl)amino)ethanol] was below 50 nM. The same measure, in the same setting: to `C[C@H](Nc1nccc(Nc2cc(C3CC3)[nH]n2)n1)c1cc(F)cc2[nH]cnc12` [II-18, (S)-N^4-(5-cyclopropyl-1H-pyrazol-3-yl)-N^2-(1-(6-fluoro-1H-benzo[d]imidazol-4-yl)ethyl)pyrimidine-2,4-diamine] belongs below 50 nM. As to `COC[C@@H](C)c1cc(Nc2ccnc(N(C)Cc3ccc4[nH]cnc4c3Cl)n2)n[nH]1` [II-80, (S)-N^2-((4-chloro-1H-benzo[d]imidazol-5-yl)methyl)-N^4-(5-(1-methoxypropan-2-yl)-1H-pyrazol-3-yl)-N^2-methylpyrimidine-2,4-diamine], the Ki is below 50 nM. On the same count and under the same terms, the value for `CO[C@@H](C)CN(Cc1cc(F)cc2[nH]ncc12)c1nccc(Nc2cc(C3CC3)[nH]n2)n1` [II-95, (S)-N^4-(5-cyclopropyl-1H-pyrazol-3-yl)-N^2-((6-fluoro-1H-indazol-4-yl)methyl)-N^2-(2-methoxypropyl)pyrimidine-2,4-diamine] was below 50 nM. On to `Fc1cc(CNc2nccc(Nc3cc([C@H]4C[C@@H]4F)[nH]n3)n2)c2cn[nH]c2c1` [II-60, N^2-((6-fluoro-1H-indazol-4-yl)methyl)-N^4-(5-((1R,2S)-2-fluorocyclopropyl)-1H-pyrazol-3-yl)pyrimidine-2,4-diamine], for which the Ki was below 50 nM.

`Cc1cc(Nc2nc(N(C)Cc3ccc4[nH]cnc4c3Cl)ncc2F)n[nH]1` [II-91, N^2-((4-chloro-1H-benzo[d]imidazol-5-yl)methyl)-5-fluoro-N^2-methyl-N^4-(5-methyl-1H-pyrazol-3-yl)pyrimidine-2,4-diamine]: the Ki was below 50 nM. On the same count and under the same terms, to `CN(Cc1ccc2[nH]cnc2c1Cl)c1ncc(F)c(Nc2cc(C(C)(C)C)[nH]n2)n1` [II-42, N^4-(5-tert-Butyl-1H-pyrazol-3-yl)-N^2-((4-chloro-1H-benzo[d]imidazol-5-yl)methyl)-5-fluoro-N^2-methylpyrimidine-2,4-diamine] belongs 50 to 250 nM. Still for that read-out and setting: to `CCN(Cc1cc(F)cc2[nH]ncc12)c1ncc(F)c(Nc2cc(C3CC3)[nH]n2)n1` [II-85, N^4-(5-cyclopropyl-1H-pyrazol-3-yl)-N^2-ethyl-5-fluoro-N^2-((6-fluoro-1H-indazol-4-yl)methyl)pyrimidine-2,4-diamine] belongs below 50 nM. `C[C@@H](O)CN(Cc1cc(F)cc2[nH]ncc12)c1nccc(Nc2cc(C3CC3)[nH]n2)n1` [II-67, (R)-1-((4-((5-cyclopropyl-1H-pyrazol-3-yl)amino)pyrimidin-2-yl)((6-fluoro-1H-indazol-4-yl)methyl)amino)propan-2-ol]: the Ki was below 50 nM. Still for that read-out and setting: to `Clc1c(CNc2nccc(Nc3cc(COC4CCC4)[nH]n3)n2)ccc2[nH]cnc12` [II-43, N^2-((4-Chloro-1H-benzo[d]imidazol-5-yl)methyl)-N^4-(5-(cyclobutoxymethyl)-1H-pyrazol-3-yl)pyrimidine-2,4-diamine] belongs 50 to 250 nM; to `Cc1cc(CNc2nccc(Nc3cc(C4CC4)[nH]n3)n2)c2cn[nH]c2c1` [II-13, N^4-(5-Cyclopropyl-1H-pyrazol-3-yl)-N^2-((6-methyl-1H-indazol-4-yl)methyl)pyrimidine-2,4-diamine], below 50 nM. On the same count and under the same terms, to `Fc1cc(CNc2nccc(Nc3cc([C@@H]4CC4(F)F)[nH]n3)n2)c2cn[nH]c2c1` [II-65, (S)-N^4-(5-(2,2-difluorocyclopropyl)-1H-pyrazol-3-yl)-N^2-((6-fluoro-1H-indazol-4-yl)methyl)pyrimidine-2,4-diamine] belongs below 50 nM; to `CC(C)N(Cc1cc(F)cc2[nH]ncc12)c1ncc(F)c(Nc2cc(C3CC3)[nH]n2)n1` [II-96, N^4-(5-cyclopropyl-1H-pyrazol-3-yl)-5-fluoro-N^2-((6-fluoro-1H-indazol-4-yl)methyl)-N^2-isopropylpyrimidine-2,4-diamine], below 50 nM; to `CNCCN(Cc1cc(F)cc2[nH]ncc12)c1nccc(Nc2cc(C3CC3)[nH]n2)n1` [II-47, N^4-(5-cyclopropyl-1H-pyrazol-3-yl)-N^2-((6-fluoro-1H-indazol-4-yl)methyl)-N^2-(2-(methylamino)ethyl)pyrimidine-2,4-diamine], below 50 nM. Still for that read-out and setting: the value for `Cc1cc2c(CNc3nccc(Nc4cc(C5CC5)[nH]n4)n3)cccc2[nH]1` [II-15, N^4-(5-Cyclopropyl-1H-pyrazol-3-yl)-N^2-((2-methyl-1H-indol-4-yl)methyl)pyrimidine-2,4-diamine] was below 50 nM; that for `CN(C)CCN(Cc1ccc2[nH]cnc2c1)c1nccc(Nc2cc(C3CC3)[nH]n2)n1` [II-105, N^2-((1H-benzo[d]imidazol-5-yl)methyl)-N^4-(5-cyclopropyl-1H-pyrazol-3-yl)-N^2-(2-(dimethylamino)ethyl)pyrimidine-2,4-diamine] was 50 to 250 nM.

For the origin of these results see patent publication US8637537B2, “Serine/threonine kinase inhibitors” (Genentech, Inc., priority 2011, dated 2014).
